Measurements as given in PMC6423584, “New sesquiterpenoids from the South China Sea soft corals Clavularia viridis and Lemnalia flava” (Beilstein Journal of Organic Chemistry, 2019).

Key:
[1] = system: NF-κB signaling pathway in stable HEK293/NF-κB cells; assay: NF-κB signaling pathway inhibitory activity assay (luciferase reporter, TNF-α stimulation); type: cell-based; conditions: Homo sapiens, luciferase read after 6 h
Protocol: NF-κB signaling pathway inhibitory activity was evaluated according to the previously reported protocol. Stable HEK293/NF-κB cells were plated into 384-well plates at a concentration of approximate 2500 cells per well. After culturing overnight, compounds were added to the medium at a final concentration of 0.1 μg/mL. HEK293/NF-κB cells were seeded into 96-well cell culture plates (Corning, NY, USA) and allowed to grow for 24 h. The cells were then treated with compounds, followed by stimulation with TNF-α. 6 h later, the luciferase substrate was added to each well, and the released luciferin signal was detected using an EnVision microplate reader. The IC50 was calculated with Prism 4 software (Graphpad, San Diego, CA) from the nonlinear curve fitting of the percentage of inhibition (% inhibition) versus the inhibitor concentration [I] by using the following equation: % inhibition = 100/(1 + [IC50/[I]]^k), where k is the Hill coefficient.

[2] = target: T1, recombinant PTP1B catalytic domain (Homo sapiens, UniProt P18031); assay: PTP1B inhibitory activity assay (pNPP hydrolysis); type: biochemical; conditions: pNPP substrate, 30 °C, pH 6.5; IC50 ≥ 50 μM was considered inactive
T1 construct: The recombinant PTP1B catalytic domain was expressed and purified according to a previous report; made in house
T1 sequence (P18031 3-277 limits assumed): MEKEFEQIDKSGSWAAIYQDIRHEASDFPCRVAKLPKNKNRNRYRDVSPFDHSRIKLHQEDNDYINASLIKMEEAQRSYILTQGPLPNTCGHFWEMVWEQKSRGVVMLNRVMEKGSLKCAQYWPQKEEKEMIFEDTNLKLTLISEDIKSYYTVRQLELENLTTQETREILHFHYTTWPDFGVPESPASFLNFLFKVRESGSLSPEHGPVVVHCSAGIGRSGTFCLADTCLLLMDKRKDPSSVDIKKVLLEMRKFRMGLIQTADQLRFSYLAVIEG
Protocol: The recombinant PTP1B catalytic domain was expressed and purified according to a previous report. The enzymatic activities of the PTP1B catalytic domain were determined at 30 °C by monitoring the hydrolysis of pNPP. Dephosphorylation of pNPP generated the product pNP, which was monitored at an absorbance of 405 nm with an EnVision multilabel plate reader (Perkin–Elmer Life Sciences, Boston, MA). In a typical […] assay mixture containing 50 mmol/L 3-morpholinopropanesulfonic acid, pH 6.5, 2 mmol/L pNPP, and 30 nmol/L recombinant PTP1B, activities were continuously monitored and the initial rate of hydrolysis was determined by using the early linear region of the enzymatic reaction kinetic curve.

Structure (SMILES)	IC50 [1] [µM]	IC50 [2] [µM]	IC50 (μM) PTP1B [2]
CC(C)C[C@H](NC(=O)[C@H](Cc1ccccc1)NC(=O)c1cnccn1)B(O)O [bortezomib, reference compound]	14		
Cc1cc(Br)c(C2(C)CCC(=CBr)C2C)cc1O (stereo not shown) [compound 1, isobromolaurenisol]	19.9	18.8	
C=C1CCC(C)(c2cc(O)c(C)cc2Br)C1C (stereo not shown) [compound 2, clalaurenol A]	6.8	21.8	
Cc1ccc(C2(C)CCC(=CBr)C2C)c(O)c1 (stereo not drawn) [compound 3, ent-laurenisol]		> 50	inactive
Cc1cc(O)c(C2(C)CCC(=CBr)C2C)cc1Br (stereo not shown) [compound 4, clalaurenol B]	7.3	15.6	
Cc1cc(Br)c([C@]2(C)CC=CC2(C)C)cc1O [compound 5, cupalaurenol]		> 50	
C=C1CCC2C(C3C(C)CCC13O)C2(C)C (stereo not shown) [compound 6, claaromadendrene]		> 50	
C=C1CC[C@H]2[C@@H]([C@H]3[C@@H](C)CC[C@@]13O)C2(C)C [compound 7, 1-hydroxyalloaromadendrene]		> 50	
C/C1=C\CC(C)(C)/C=C/C[C@@]2(C)O[C@@H]2CC1 [compound 8, humulene epoxide II]		> 50	
